In ChEMBL document CHEMBL1138400, “Discovery of gamma-secretase inhibitors efficacious in a transgenic animal model of Alzheimer's disease” (Bioorg Med Chem Lett, 2007):

Tests used:
Gamma-secretase [1] = assay: Inhibition of gamma-secretase mediated amyloid beta-40 production in HEK293 cell membranes; type: cell-based, Homo sapiens
Gamma-secretase [2] = assay: Inhibition of gamma-secretase mediated amyloid beta-40 production in HEK293 cells by whole cell-based assay; parameters: species or system Homo sapiens
in vivo = conditions: rat, plasma, po, 10 mg/kg
Description: AUC (0 to 6h) in rat at 10 mg/kg, po

Row | Structure (SMILES) | IC50 (Gamma-secretase [1]) | IC50 (Gamma-secretase [2]) | AUC(0-t) at 6 h (in vivo)
1 | C[C@H]1CN(CC2CC2)CCN1C(=O)OCC1CCCC(c2cc(F)cc(F)c2)N1S(=O)(=O)c1ccc(Cl)cc1 (mixture of isomers) | 110 nM | – | –
2 | O=C(OC1(C2CCCC(c3cccc(F)c3)N2S(=O)(=O)c2ccc(Cl)cc2)CC1)N1C2CCC1CC(N1CC[C@@H](O)C1)C2 (mixture of isomers) | 3.6 nM | 20 nM | 2090 ng·h/mL
3 | C[C@H]1CN(C(C)(CO)CO)CCN1C(=O)OC1(C2CCCC(c3cccc(F)c3)N2S(=O)(=O)c2ccc(Cl)cc2)CC1 (mixture of isomers) | 0.9 nM | 5.1 nM | 1770 ng·h/mL
4 | C[C@H]1CNCCN1C(=O)OC1(C2CCCC(c3cc(F)cc(F)c3)N2S(=O)(=O)c2ccc(Cl)cc2)CC1 (mixture of isomers) | 16.8 nM | 154 nM | –
5 | C[C@H]1CN(CCO)CCN1C(=O)OC1(C2CCCC(c3cccc(F)c3)N2S(=O)(=O)c2ccc(Cl)cc2)CC1 (mixture of isomers) | 2.1 nM | 28.7 nM | 7210 ng·h/mL
6 | C[C@H]1CN(CC2CC2)CCN1C(=O)OC1(C2CCCC(c3cc(F)cc(F)c3)N2S(=O)(=O)c2ccc(Cl)cc2)CC1 (mixture of isomers) | 6.1 nM | – | –
7 | CCN1CCN(C(=O)OC2(C3CCCC(c4cc(F)cc(F)c4)N3S(=O)(=O)c3ccc(Cl)cc3)CC2)CC1 (racemic) | 1.1 nM | 7.5 nM | 1400 ng·h/mL
8 | O=C(OC1(C2CCCC(c3cc(F)cc(F)c3)N2S(=O)(=O)c2cc(F)cc(F)c2)CC1)N1CCN(CCO)CC1 (racemic) | 16.8 nM | 24.7 nM | 23100 ng·h/mL
9 | CC(C)(OC(=O)N1CCC(N2CCCCC2)CC1)C1CCCC(c2cccc(F)c2)N1S(=O)(=O)c1ccc(Cl)cc1 (racemic) | 4.4 nM | – | 2430 ng·h/mL
10 | O=C(OCC1CCCC(c2cccc(F)c2)N1S(=O)(=O)c1ccc(Cl)cc1)N1CCC(N2CCCCC2)CC1 (racemic) | 11.2 nM | – | 1380 ng·h/mL
11 | CN1CN(C)C2(CCN(C(=O)OCC3CCCC(c4cc(F)cc(F)c4)N3S(=O)(=O)c3ccc(Cl)cc3)CC2)C1=O (racemic) | 26.8 nM | – | –
12 | O=C(OC1([C@H]2CCC[C@@H](c3cc(F)cc(F)c3)N2S(=O)(=O)c2ccc(Cl)cc2)CC1)N1CCC2(CC1)C(=O)NCN2c1ccccc1 (racemic) | 8.5 nM | – | –
13 | O=C(OCC1CCCC(c2cc(F)cc(F)c2)N1S(=O)(=O)c1ccc(Cl)cc1)N1CCN(C2CCCCC2)CC1 (racemic) | 36.1 nM | – | –
14 | O=C(OCC1CCCC(c2cc(F)cc(F)c2)N1S(=O)(=O)c1ccc(Cl)cc1)N1CCNCC1 (racemic) | 74.8 nM | – | –
15 | CN(c1ccccc1)C1CCN(C(=O)OC2(C3CCCC(c4cccc(F)c4)N3S(=O)(=O)c3ccc(Cl)cc3)CC2)CC1 (racemic) | 15.4 nM | – | –
16 | O=C(OC1(C2CCCC(c3cccc(F)c3)N2S(=O)(=O)c2ccc(Cl)cc2)CC1)N1CCC(N2CCC(F)(F)CC2)CC1 (racemic) | 2.3 nM | 5.5 nM | 1670 ng·h/mL
17 | CCCC1(O)CCN(C(=O)OC2(C3CCCC(c4cccc(F)c4)N3S(=O)(=O)c3ccc(Cl)cc3)CC2)CC1 (racemic) | 4.5 nM | 10.7 nM | –

Row | Structure (SMILES) | IC50 (Gamma-secretase [1]) | IC50 (Gamma-secretase [2]) | AUC(0-t) at 6 h (in vivo)
18 | CC1CN(C(=O)OC2(C3CCCC(c4cccc(F)c4)N3S(=O)(=O)c3ccc(Cl)cc3)CC2)CC(C)N1 (racemic) | 5.3 nM | 120 nM | 1810 ng·h/mL
19 | O=C(OC1(C2CCCC(c3cccc(F)c3)N2S(=O)(=O)c2ccc(Cl)cc2)CC1)N1CCN(CCO)CC1 (racemic) | 1.9 nM | 7 nM | 2090 ng·h/mL
20 | O=C(OC1(C2CCCC(c3cc(F)cc(F)c3)N2S(=O)(=O)c2ccc(Cl)cc2)CC1)N1CCC(N2CCCCC2)CC1 (racemic) | 0.3 nM | 5.8 nM | 1080 ng·h/mL
21 | CC(C)N1CCN(C(=O)OC2(C3CCCC(c4cc(F)cc(F)c4)N3S(=O)(=O)c3ccc(Cl)cc3)CC2)CC1 (racemic) | 2.7 nM | 17 nM | 783 ng·h/mL
22 | CN(c1ccccc1)C1CCN(C(=O)OCC2CCCC(c3cc(F)cc(F)c3)N2S(=O)(=O)c2ccc(Cl)cc2)CC1 (racemic) | 165 nM | – | –
23 | O=C(OC1(C2CCCC(c3cccc(F)c3)N2S(=O)(=O)c2ccc(Cl)cc2)CC1)N1C2CCC1CC(N1CCCCC1)C2 (racemic) | 2.6 nM | 9.7 nM | 2880 ng·h/mL
24 | CCC(CO)NC1CC2CCC(C1)N2C(=O)OC1(C2CCCC(c3cccc(F)c3)N2S(=O)(=O)c2ccc(Cl)cc2)CC1 (racemic) | 5.2 nM | 21.5 nM | 3070 ng·h/mL
25 | O=C(OC1(C2CCCC(c3cc(F)cc(F)c3)N2S(=O)(=O)c2cc(F)cc(F)c2)CC1)N1CCC(N2CCCCC2)CC1 (racemic) | 3.5 nM | 12.9 nM | 5050 ng·h/mL
26 | O=C(OC1(C2CCCC(c3cccc(F)c3)N2S(=O)(=O)c2ccc(Cl)cc2)CC1)N1CCC(O)(C2CC2)CC1 (racemic) | 3.7 nM | 7.7 nM | –
27 | O=C(OC[C@H]1CCC[C@@H](c2cc(F)cc(F)c2)N1S(=O)(=O)c1ccc(Cl)cc1)N1CCC2(CC1)C(=O)NCN2c1ccccc1 (racemic) | 152 nM | – | –
28 | CN1CN(C)C2(CCN(C(=O)OC3(C4CCCC(c5cc(F)cc(F)c5)N4S(=O)(=O)c4ccc(Cl)cc4)CC3)CC2)C1=O (racemic) | 5.3 nM | – | –
29 | O=C(OC1(C2CCCC(c3cc(F)cc(F)c3)N2S(=O)(=O)c2ccc(Cl)cc2)CC1)N1CCN(C2CCCCC2)CC1 (racemic) | 4.2 nM | – | –
30 | O=C(OC1(C2CCCC(c3cc(F)cc(F)c3)N2S(=O)(=O)c2ccc(Cl)cc2)CC1)N1CCNCC1 (racemic; form 1) | 7.9 nM | – | –
31 | O=C(OC1(C2CCCC(c3cccc(F)c3)N2S(=O)(=O)c2ccc(Cl)cc2)CC1)N1CCC(N2CCCCC2)CC1 (racemic; form 1) | 0.7 nM | – | –
32 | Cl.O=C(OC1(C2CCCC(c3cc(F)cc(F)c3)N2S(=O)(=O)c2ccc(Cl)cc2)CC1)N1CCNCC1 (racemic; form 2) | 7.9 nM | 106 nM | 6210 ng·h/mL
33 | Cl.O=C(OC1(C2CCCC(c3cccc(F)c3)N2S(=O)(=O)c2ccc(Cl)cc2)CC1)N1CCC(N2CCCCC2)CC1 (racemic; form 2) | 0.8 nM | 5 nM | 802 ng·h/mL
